Measured values: patent US12448395B2 (BRISTOL-MYERS SQUIBB COMPANY, priority 2019, dated 2025)

Assays:
[1] = target: T1, human TLR8 (Homo sapiens, UniProt Q9NR97); assay: TLR8 inhibition reporter assay (HEK-Blue SEAP, R848 stimulation); type: cell-based; conditions: HEK-Blue cells overexpressing human TLR8, R848 15.9 μM
T1 sequence (Q9NR97 27-1041): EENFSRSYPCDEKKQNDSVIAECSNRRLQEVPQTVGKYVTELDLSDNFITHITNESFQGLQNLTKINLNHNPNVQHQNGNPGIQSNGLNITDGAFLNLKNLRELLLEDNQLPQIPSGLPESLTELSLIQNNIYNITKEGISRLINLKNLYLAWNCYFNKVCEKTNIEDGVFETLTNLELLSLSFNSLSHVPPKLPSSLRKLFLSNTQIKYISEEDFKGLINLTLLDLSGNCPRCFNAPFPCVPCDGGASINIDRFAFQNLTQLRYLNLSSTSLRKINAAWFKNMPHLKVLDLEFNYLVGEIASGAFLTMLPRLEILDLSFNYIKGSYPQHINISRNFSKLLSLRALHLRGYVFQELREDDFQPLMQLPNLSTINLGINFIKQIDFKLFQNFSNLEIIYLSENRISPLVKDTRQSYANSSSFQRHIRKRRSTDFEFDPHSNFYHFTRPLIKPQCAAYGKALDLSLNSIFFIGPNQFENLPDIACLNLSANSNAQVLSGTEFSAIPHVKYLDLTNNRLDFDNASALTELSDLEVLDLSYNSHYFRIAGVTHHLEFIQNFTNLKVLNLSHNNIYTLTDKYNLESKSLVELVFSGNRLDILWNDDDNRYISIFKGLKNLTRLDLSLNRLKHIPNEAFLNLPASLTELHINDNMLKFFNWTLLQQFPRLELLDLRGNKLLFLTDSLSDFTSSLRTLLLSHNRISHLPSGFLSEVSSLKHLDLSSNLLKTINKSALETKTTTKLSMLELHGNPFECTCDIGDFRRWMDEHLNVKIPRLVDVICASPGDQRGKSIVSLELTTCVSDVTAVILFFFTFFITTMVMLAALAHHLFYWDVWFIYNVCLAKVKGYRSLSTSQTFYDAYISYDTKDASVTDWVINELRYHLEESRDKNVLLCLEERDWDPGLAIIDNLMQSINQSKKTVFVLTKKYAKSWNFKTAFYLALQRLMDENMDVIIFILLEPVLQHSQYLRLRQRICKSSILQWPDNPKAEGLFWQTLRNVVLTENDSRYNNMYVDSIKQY
Protocol: TLR7/8/9 Inhibition Reporter Assays
HEK-Blue™-cells (Invivogen) overexpressing human TLR7, TLR8 or TLR9 receptors were used for screening inhibitors of these receptors using an inducible SEAP (secreted embryonic alkaline phosphatase) reporter gene under the control of the IFN-β minimal promoter fused to five NF-κB and AP-1-binding sites. Briefly, cells are seeded into Greiner 384 well plates (15000 cells per well for TLR7, 20,000 for TLR8 and 25,000 for TLR9) and then treated with test compounds in DMSO to yield a final dose response concentration range of 0.05 nM-50 μM. After a 30 minute compound pre-treatment at room temperature, the cells are then stimulated with a TLR7 ligand (gardiquimod at a final concentration of 7.5 μM), TLR8 ligand (R848 at a final concentration of 15.9 μM) or TLR9 ligand (ODN2006 at a final concentration of 5 nM) to activate NF-κB and AP-1 which induce the production of SEAP. After a 22 hour incubation at 37° C., 5% CO2, SEAP levels are determined with the addition of HEK-Blue™ Detection reagent (Invivogen), a cell culture medium that allows for detection of SEAP, according to manufacturer's specifications. The percent inhibition is determined as the % reduction in the HEK-Blue signal present in wells treated with agonist plus DMSO alone compared to wells treated with a known inhibitor.

[2] = target: T2, TLR7 (Mus musculus, UniProt P58681); assay: In vivo mouse TLR7 PD model (gardiquimod-induced plasma IL-6 and IFN-alpha); conditions: C57BL/6 mice, 90 min after gardiquimod
T2 sequence (P58681 27-1050): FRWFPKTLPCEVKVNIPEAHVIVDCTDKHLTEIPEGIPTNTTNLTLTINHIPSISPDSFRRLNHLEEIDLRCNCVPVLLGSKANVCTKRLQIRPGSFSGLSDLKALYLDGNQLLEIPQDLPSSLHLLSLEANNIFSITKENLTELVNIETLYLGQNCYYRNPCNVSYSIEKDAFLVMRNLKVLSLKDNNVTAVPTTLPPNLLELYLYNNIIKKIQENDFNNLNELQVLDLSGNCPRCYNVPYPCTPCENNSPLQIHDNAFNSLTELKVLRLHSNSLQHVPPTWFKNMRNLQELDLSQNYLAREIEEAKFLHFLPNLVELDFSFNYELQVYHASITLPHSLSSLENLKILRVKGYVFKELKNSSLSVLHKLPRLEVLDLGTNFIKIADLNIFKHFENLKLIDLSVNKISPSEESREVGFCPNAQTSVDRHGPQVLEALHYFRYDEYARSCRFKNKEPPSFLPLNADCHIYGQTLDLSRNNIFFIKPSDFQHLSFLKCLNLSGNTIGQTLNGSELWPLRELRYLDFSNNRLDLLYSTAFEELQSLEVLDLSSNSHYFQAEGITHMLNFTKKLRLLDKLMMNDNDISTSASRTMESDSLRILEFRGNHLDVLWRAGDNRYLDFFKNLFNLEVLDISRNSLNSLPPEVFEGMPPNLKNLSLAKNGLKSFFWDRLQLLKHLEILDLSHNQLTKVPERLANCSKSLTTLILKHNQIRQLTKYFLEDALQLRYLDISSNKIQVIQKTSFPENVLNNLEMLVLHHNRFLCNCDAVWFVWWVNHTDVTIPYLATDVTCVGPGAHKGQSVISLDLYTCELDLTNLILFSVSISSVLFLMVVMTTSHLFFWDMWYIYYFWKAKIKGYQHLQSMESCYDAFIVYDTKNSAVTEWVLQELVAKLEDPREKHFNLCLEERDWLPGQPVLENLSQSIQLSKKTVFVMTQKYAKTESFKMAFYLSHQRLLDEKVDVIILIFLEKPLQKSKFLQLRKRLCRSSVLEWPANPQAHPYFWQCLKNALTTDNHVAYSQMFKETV
Protocol: In Vivo Mouse TLR7 PD Model:
Adult male C57BL/6 mice were used for the experiments. Mice (7 to 10 per group) were randomized into different treatment groups based on body weight. Mice from the respective treatment groups were administered orally with vehicle or test compound. Thirty min after the oral administration of vehicle or test compound, mice were challenged with intraperitoneal injection of gardiquimod for TLR7 PD model. Ninety minutes after gardiquimod injection, mice were bled under isoflurane anaesthesia and plasma IL-6 and IFN-alpha levels were estimated by using commercially available ELISA kit (BD Biosciences, PBL Life Sciences). At the end of experiment, mean cytokine data was plotted and one way ANOVA with Dunnett's test was performed to calculate the significance of test compound treated group vs. vehicle control group. Percent inhibition of cytokine induction was calculated for test compound treated group vs vehicle control group.

[3] = target: T3, human TLR9 (Homo sapiens, UniProt Q9NR96); assay: TLR9 inhibition reporter assay (HEK-Blue SEAP, ODN2006 stimulation); type: cell-based; conditions: HEK-Blue cells overexpressing human TLR9, ODN2006 5 nM
T3 sequence (Q9NR96 26-1032): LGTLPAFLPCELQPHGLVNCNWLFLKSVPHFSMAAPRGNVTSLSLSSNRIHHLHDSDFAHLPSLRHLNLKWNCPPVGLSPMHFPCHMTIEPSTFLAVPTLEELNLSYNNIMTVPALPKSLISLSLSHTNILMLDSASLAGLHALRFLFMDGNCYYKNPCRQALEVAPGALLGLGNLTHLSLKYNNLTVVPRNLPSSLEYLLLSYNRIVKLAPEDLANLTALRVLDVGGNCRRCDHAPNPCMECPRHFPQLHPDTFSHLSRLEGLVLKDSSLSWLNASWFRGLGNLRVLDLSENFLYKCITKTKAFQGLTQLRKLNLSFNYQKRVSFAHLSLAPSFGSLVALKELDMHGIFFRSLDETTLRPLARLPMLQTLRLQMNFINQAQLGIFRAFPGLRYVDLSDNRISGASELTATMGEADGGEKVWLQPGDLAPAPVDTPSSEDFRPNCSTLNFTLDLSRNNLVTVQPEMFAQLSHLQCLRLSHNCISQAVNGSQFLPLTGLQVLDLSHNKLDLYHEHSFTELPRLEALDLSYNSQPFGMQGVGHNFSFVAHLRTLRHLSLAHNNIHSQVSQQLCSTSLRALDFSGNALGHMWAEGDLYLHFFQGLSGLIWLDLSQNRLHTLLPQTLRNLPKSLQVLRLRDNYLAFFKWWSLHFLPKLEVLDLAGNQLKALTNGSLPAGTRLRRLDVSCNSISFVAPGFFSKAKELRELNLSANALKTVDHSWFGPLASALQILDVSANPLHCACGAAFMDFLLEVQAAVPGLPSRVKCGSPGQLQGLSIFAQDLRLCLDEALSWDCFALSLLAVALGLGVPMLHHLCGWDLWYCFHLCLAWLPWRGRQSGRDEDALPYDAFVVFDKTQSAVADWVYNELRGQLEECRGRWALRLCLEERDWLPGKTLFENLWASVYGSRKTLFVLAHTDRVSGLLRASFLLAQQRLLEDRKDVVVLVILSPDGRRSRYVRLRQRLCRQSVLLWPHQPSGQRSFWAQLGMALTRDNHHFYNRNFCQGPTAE
Procedure, shortened: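 HEK-Blue cells overexpressing human TLR7, TLR8 or TLR9 carry a SEAP reporter driven by NF-κB/AP-1 sites. Compounds (0.05 nM–50 μM) were preincubated 30 min at room temperature, then cells were stimulated with gardiquimod 7.5 μM (TLR7), R848 15.9 μM (TLR8) or ODN2006 5 nM (TLR9) for 22 h at 37 °C.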

Cc1cc(-c2[nH]c3sc(N4CCNC[C@H]4C)nc3c2C(C)C)cn2ncnc12 [Example 311, (R)-6-isopropyl-5-(8-methyl-[1,2,4]triazolo[1,5-a]pyridin-6-yl)-2-(2-methylpiperazin-1-yl)-4H-pyrrolo[3,2-d]thiazole]
IC50 [1]: > 3.13 µM

COCCN1CCN(c2nc3c(C(C)C)c(-c4cc(C)c5ncnn5c4)[nH]c3s2)[C@H](C)C1 [Example 357, (R)-6-isopropyl-2-(4-(2-methoxyethyl)-2-methylpiperazin-1-yl)-5-(8-methyl-[1,2,4]triazolo[1,5-a]pyridin-6-yl)-4H-pyrrolo[3,2-d]thiazole]
IC50 [1]: > 3.13 µM

COc1cc(-c2[nH]c3sc(C4CCC(NC5COC5)CC4)nc3c2C(C)C)cn2ncnc12 (single isomer, unassigned) [Example 65, N-(4-(6-isopropyl-5-(8-methoxy-[1,2,4]triazolo[1,5-a]pyridin-6-yl)-4H-pyrrolo[3,2-d]thiazol-2-yl)cyclohexyl)oxetan-3-amine]
% inhibition of IFN-alpha ([2]; oral dose 0.001 mg/kg): 50%
% inhibition of IL6 ([2]; oral dose 0.001 mg/kg): 21%
% inhibition of IFN-alpha ([2]; oral dose 0.005 mg/kg): 63%
% inhibition of IL6 ([2]; oral dose 0.005 mg/kg): 42%
% inhibition of IFN-alpha ([2]; oral dose 0.025 mg/kg): 97%
% inhibition of IL6 ([2]; oral dose 0.025 mg/kg): 78%
% inhibition of IFN-alpha ([2]; oral dose 0.050 mg/kg): 99%
% inhibition of IL6 ([2]; oral dose 0.050 mg/kg): 94%

Cc1cc(-c2[nH]c3sc(N4CCN(CC(C)C)C[C@H]4C)nc3c2C(C)C)cn2ncnc12 [Example 361, (R)-2-(4-isobutyl-2-methylpiperazin-1-yl)-6-isopropyl-5-(8-methyl-[1,2,4]triazolo[1,5-a]pyridin-6-yl)-4H-pyrrolo[3,2-d]thiazole]
IC50 [1]: > 3.13 µM

Cc1cc(-c2[nH]c3sc(N4CCN(CC(C)(C)O)C[C@H]4C)nc3c2C(C)C)cn2ncnc12 [Example 359, (R)-1-(4-(6-isopropyl-5-(8-methyl-[1,2,4]triazolo[1,5-a]pyridin-6-yl)-4H-pyrrolo[3,2-d]thiazol-2-yl)-3-methylpiperazin-1-yl)-2-methylpropan-2-ol]
IC50 [1]: > 3.13 µM
IC50 [3]: > 50 µM
